Assay results taken from PubChem BioAssay AID248 (DTP/NCI, 2004).
“And” between values parts separate entries of the source, which are not always exact repeats. Identical values can stand only once. Inconclusive results and toxic doses are left out. Rule as the data show it: active = T/C of 150% or more; inactive = T/C below 125%.

System: L1210 leukemia ip in BDF1 mice, survival T/C
Experiment: NCI In Vivo Anticancer Drug Screen. Data for tumor model L1210 Leukemia (intraperitoneal) in B6D2F1 (BDF1) mice
Settings: endpoint: mean survival time, higher = longer survival
Procedure, shortened: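 Mice bearing the transplanted tumor received compound or vehicle. Survival of the treated group was divided by that of the vehicle-treated control group to give the ratio.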

[1] = dose: 100.0 mg/kg/injection, schedule: Q04DX003 (ip), vehicle: saline with Tween-80
[2] = dose: 200.0 mg/kg/injection, schedule: Q04DX003 (ip), vehicle: saline with Tween-80
[3] = dose: 400.0 mg/kg/injection, schedule: Q04DX003 (ip), vehicle: saline with Tween-80
[4] = dose: 100.0 mg/kg/injection, schedule: Q04DX003 (ip), vehicle: saline
[5] = dose: 200.0 mg/kg/injection, schedule: Q04DX003 (ip), vehicle: saline
[6] = dose: 400.0 mg/kg/injection, schedule: Q04DX003 (ip), vehicle: saline
[7] = dose: 100.0 mg/kg/injection, schedule: Q01DX009 (ip), vehicle: saline with Tween-80
[8] = dose: 200.0 mg/kg/injection, schedule: Q01DX009 (ip), vehicle: saline with Tween-80
[9] = dose: 400.0 mg/kg/injection, schedule: Q01DX009 (ip), vehicle: saline with Tween-80
[10] = dose: 100.0 mg/kg/injection, schedule: Q01DX009 (ip), vehicle: saline
[11] = dose: 100.0 mg/kg/injection, schedule: Q04DX002 (ip), vehicle: saline with Tween-80
[12] = dose: 200.0 mg/kg/injection, schedule: Q04DX002 (ip), vehicle: saline with Tween-80
[13] = dose: 400.0 mg/kg/injection, schedule: Q04DX002 (ip), vehicle: saline with Tween-80

Measured: T/C

COC(=O)c1ccc(OC)c2nc3c(C=O)c(OC)cc(OC)c3nc12
inactive: [1] 102 % of control | [2] 109 % of control | [3] 95 % of control

CC(=N)Oc1ccccc1
inactive: dose: 75.0 mg/kg/injection, schedule: Q01DX001 (ip), vehicle: Klucel (hydroxypropylcellulose) (HPC) 101 % of control | dose: 150.0 mg/kg/injection, schedule: Q01DX001 (ip), vehicle: Klucel (hydroxypropylcellulose) (HPC) 106 % of control | dose: 300.0 mg/kg/injection, schedule: Q01DX001 (ip), vehicle: Klucel (hydroxypropylcellulose) (HPC) 102 % of control

COc1ccc(C(=O)OCc2ccccc2CN2CCCCC2)cc1
inactive: dose: 100.0 mg/kg/injection, schedule: Q04DX002 (ip), vehicle: Klucel (hydroxypropylcellulose) (HPC) 102 % of control | dose: 200.0 mg/kg/injection, schedule: Q04DX002 (ip), vehicle: Klucel (hydroxypropylcellulose) (HPC) 102 % of control | dose: 400.0 mg/kg/injection, schedule: Q04DX002 (ip), vehicle: Klucel (hydroxypropylcellulose) (HPC) 86 % of control

CCOC1CC2CN(C)C1c1ccccc12 (stereo unspecified)
inactive: [4] 97 % of control | [5] 97 % of control | [6] 101 % of control

COC(=O)c1cc(N2CC2)nc(SC)n1
inactive: dose: 6.0 mg/kg/injection, schedule: Q01DX Z (ip), vehicle: methylcellulose (MC) 96 % of control | dose: 12.0 mg/kg/injection, schedule: Q01DX Z (ip), vehicle: methylcellulose (MC) 96 % of control

COc1cc(CC2Cc3cccc(=O)c(O)c3C(=O)O2)cc(OC)c1OC (stereo unspecified)
inactive: [1] 90 % of control | [2] 95 % of control | [3] 92 % of control

NC(=O)c1ccccc1OC(=O)Nc1ccccc1F
inactive: [7] 106 % of control | [8] 107 % of control | [9] 107 % of control

C/C(=N/NC(=O)CNC(=O)c1ccccc1)c1ccc2ccccc2c1
inactive: [7] 87 % of control | [8] 100 % of control

COc1ccc(N=Nc2ccccc2)cc1
inactive: dose: 100.0 mg/kg/injection, schedule: Q04DX003 (ip), vehicle: Klucel (hydroxypropylcellulose) (HPC) 95 % of control | dose: 200.0 mg/kg/injection, schedule: Q04DX003 (ip), vehicle: Klucel (hydroxypropylcellulose) (HPC) 94 % of control | dose: 400.0 mg/kg/injection, schedule: Q04DX003 (ip), vehicle: Klucel (hydroxypropylcellulose) (HPC) 94 % of control

O=S(=O)(O)c1ccc(/C2=c3\cc/c([n-]3)=C(\c3ccc(S(=O)(=O)O)cc3)c3ccc([n-]3)/C(c3ccc(S(=O)(=O)O)cc3)=c3/cc/c([n-]3)=C(\c3ccc(S(=O)(=O)O)cc3)c3ccc2[n-]3)cc1.[Co]
inactive: dose: 50.0 mg/kg/injection, schedule: Q01DX009 (ip), vehicle: saline 97 % of control | [10] 113 % of control

NC(CSC(c1ccccc1)(c1ccccc1)c1ccc(C(=O)O)cc1)C(=O)O.[Ga] (stereo unspecified)
inactive: dose: 100.0 mg/kg/injection, schedule: Q01DX001 (ip), vehicle: acetone 96 % of control | [10] 103 % of control | [4] 106 % of control | dose: 200.0 mg/kg/injection, schedule: Q01DX001 (ip), vehicle: acetone 98 % of control | dose: 200.0 mg/kg/injection, schedule: Q01DX009 (ip), vehicle: saline 90 % of control | [5] 97 % of control | dose: 400.0 mg/kg/injection, schedule: Q01DX001 (ip), vehicle: acetone 112 % of control | dose: 400.0 mg/kg/injection, schedule: Q01DX009 (ip), vehicle: saline 98 % of control | [6] 100 % of control

OCC(O)C(O)C(O)C(O)CN=Cc1ccccc1O (stereo unspecified)
inactive: [11] 109 % of control | [12] 95 % of control | [13] 103 % of control

CC(C)CCOC(=O)c1ccccc1OC(=O)Nc1ccc(Cl)cc1[N+](=O)[O-]
inactive: dose: 100.0 mg/kg/injection, schedule: Q01DX001 (ip), vehicle: saline with Tween-80 102 % of control | [7] 99 % of control and 89 % of control | [11] 94 % of control and 103 % of control | [1] 91 % of control | dose: 200.0 mg/kg/injection, schedule: Q01DX001 (ip), vehicle: saline with Tween-80 90 % of control | [8] 86 % of control and 89 % of control | [12] 97 % of control and 88 % of control | [2] 91 % of control | dose: 400.0 mg/kg/injection, schedule: Q01DX001 (ip), vehicle: saline with Tween-80 88 % of control | [9] 89 % of control | [13] 100 % of control and 104 % of control | [3] 99 % of control
